Marks after values point to notes of the source that are not given here.
Experiments:
[1] = system: PDECX 1T0994; test: Anti-tumor efficacy in PDECX model 1T0994; format: in vivo, mice; details: Theliatinib 15 mg/kg/day oral; PDECX 1T0994 (EGFR Q787Q)
Source text: (§1) Seven- to nine week old NOD-SCID (NOD.CB17-Prkde/JSlac) immunodeficient or BALB/cASlac-nu/nu male or female mice were obtained from Shanghai SLAC Laboratory Animal Co. Ltd or Shanghai LingChang BioTech Co. Ltd. Fresh tumor specimens from newly diagnosed patients were collected during surgery and separated into three parts for the following: (1) To prepare formalin fixed paraffin embedded (FFPE) sections; (2) For snap freezing in liquid nitrogen for DNA extraction and sequencing and (3) For subcutaneous implantation into NOD-SCID mice (P0) and subsequent passages in additional NOD-SCID or nude mice once the tumor size reached 800~1500 mm^3. […] All experiments in animals were performed in accordance with protocols approved by the Hutchison MediPharma Limited Animal Care and Use Committee ([…]).
(§2) When the average tumor volume reached the 250~500 mm^3, mice were randomly divided into different experimental groups. […] Body weight and tumor size of all mice was measured twice or thrice a week. Tumor volumes (TV) were calculated by measuring two perpendicular diameters with calipers (formula: TV = (length × width^2)/2). Tumor growth inhibition (TGI) was calculated using the formula TGI= [1-(Vt -V0)drug treated / (Vt -V0)vehicle control]×100%. Statistical significance was determined by Student's t test and p < 0.05 was considered statistically significant.

[2] = system: PDECX 1T0773; test: Anti-tumor efficacy in PDECX model 1T0773; format: in vivo, mice; details: Theliatinib 15 mg/kg/day oral
Source text: as §1, §2

[3] = target: Abl(h) (Homo sapiens, UniProt P00519); test: Kinase selectivity panel: Abl(h); format: biochemical
Experimental: (§3) Supplement oncotarget-08-50832-s003.xlsx, sheet "Sheet1" | column: Inhibition(%) at 3 µM

[4] = target: ALK(h) (Homo sapiens, UniProt Q9UM73); test: Kinase selectivity panel: ALK(h); format: biochemical
Experimental: as §3

[5] = target: Arg(h) (Homo sapiens, UniProt P42684); test: Kinase selectivity panel: Arg(h); format: biochemical
Experimental: as §3

[6] = target: ARK5(h) (Homo sapiens, UniProt O60285); test: Kinase selectivity panel: ARK5(h); format: biochemical
Experimental: as §3

[7] = target: Axl(h) (Homo sapiens, UniProt P30530); test: Kinase selectivity panel: Axl(h); format: biochemical
Experimental: as §3

[8] = target: BTK(h) (Homo sapiens, UniProt Q06187); test: Kinase selectivity panel: BTK(h); format: biochemical
Experimental: as §3

[9] = target: CK1δ(h) (Homo sapiens, UniProt P48730); test: Kinase selectivity panel: CK1δ(h); format: biochemical
Experimental: as §3

[10] = target: c-RAF(h) (Homo sapiens, UniProt P04049); test: Kinase selectivity panel: c-RAF(h); format: biochemical
Experimental: as §3

[11] = target: EGFR(T790M,L858R)(h) (Homo sapiens, UniProt P00533, L858R/T790M); test: Kinase selectivity panel: EGFR(T790M,L858R)(h); format: biochemical
[12] = target: FGFR1(h) (Homo sapiens, UniProt P11362); test: Kinase selectivity panel: FGFR1(h); format: biochemical
Experimental: as §3

[13] = target: FGFR2(h) (Homo sapiens, UniProt P21802); test: Kinase selectivity panel: FGFR2(h); format: biochemical
Experimental: as §3

[14] = target: FGFR3(h) (Homo sapiens, UniProt P22607); test: Kinase selectivity panel: FGFR3(h); format: biochemical
Experimental: as §3

[15] = target: Flt1(h) (Homo sapiens, UniProt P17948); test: Kinase selectivity panel: Flt1(h); format: biochemical
Flt1(h), sequence (P17948 27-1338): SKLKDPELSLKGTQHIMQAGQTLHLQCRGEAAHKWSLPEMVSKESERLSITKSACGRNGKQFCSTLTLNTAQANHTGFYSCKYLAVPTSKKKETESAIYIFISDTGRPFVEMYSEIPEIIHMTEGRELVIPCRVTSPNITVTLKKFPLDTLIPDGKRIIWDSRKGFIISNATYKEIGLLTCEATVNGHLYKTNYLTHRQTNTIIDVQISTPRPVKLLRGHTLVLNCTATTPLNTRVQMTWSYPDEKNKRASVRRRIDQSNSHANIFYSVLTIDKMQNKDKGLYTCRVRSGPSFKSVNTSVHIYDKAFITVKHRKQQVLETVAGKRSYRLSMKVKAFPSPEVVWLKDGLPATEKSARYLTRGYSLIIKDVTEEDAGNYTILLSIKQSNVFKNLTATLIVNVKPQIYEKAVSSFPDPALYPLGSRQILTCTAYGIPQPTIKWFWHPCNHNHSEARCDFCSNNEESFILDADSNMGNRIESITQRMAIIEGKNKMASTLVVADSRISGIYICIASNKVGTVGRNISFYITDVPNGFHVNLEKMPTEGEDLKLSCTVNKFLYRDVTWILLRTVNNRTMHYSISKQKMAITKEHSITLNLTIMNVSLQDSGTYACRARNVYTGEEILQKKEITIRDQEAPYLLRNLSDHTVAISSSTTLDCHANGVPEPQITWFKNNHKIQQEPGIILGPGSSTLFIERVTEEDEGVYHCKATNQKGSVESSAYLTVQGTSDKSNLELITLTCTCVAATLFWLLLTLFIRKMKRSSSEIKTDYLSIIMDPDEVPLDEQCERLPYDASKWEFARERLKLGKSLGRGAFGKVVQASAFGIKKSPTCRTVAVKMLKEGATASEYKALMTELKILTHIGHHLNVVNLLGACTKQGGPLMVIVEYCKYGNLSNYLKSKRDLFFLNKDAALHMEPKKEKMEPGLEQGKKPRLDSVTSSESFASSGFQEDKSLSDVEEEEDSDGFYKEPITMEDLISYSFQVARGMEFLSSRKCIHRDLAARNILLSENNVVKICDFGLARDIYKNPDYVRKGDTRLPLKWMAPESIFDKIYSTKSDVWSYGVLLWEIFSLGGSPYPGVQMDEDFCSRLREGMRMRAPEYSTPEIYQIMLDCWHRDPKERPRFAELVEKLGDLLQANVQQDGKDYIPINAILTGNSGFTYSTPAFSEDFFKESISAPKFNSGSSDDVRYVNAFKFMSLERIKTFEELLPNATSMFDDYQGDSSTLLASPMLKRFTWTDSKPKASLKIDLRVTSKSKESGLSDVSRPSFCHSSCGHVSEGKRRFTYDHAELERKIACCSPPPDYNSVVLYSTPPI
Experimental: as §3

[16] = target: Flt3(h) (Homo sapiens, UniProt P36888); test: Kinase selectivity panel: Flt3(h); format: biochemical
Flt3(h), sequence (P36888 27-993): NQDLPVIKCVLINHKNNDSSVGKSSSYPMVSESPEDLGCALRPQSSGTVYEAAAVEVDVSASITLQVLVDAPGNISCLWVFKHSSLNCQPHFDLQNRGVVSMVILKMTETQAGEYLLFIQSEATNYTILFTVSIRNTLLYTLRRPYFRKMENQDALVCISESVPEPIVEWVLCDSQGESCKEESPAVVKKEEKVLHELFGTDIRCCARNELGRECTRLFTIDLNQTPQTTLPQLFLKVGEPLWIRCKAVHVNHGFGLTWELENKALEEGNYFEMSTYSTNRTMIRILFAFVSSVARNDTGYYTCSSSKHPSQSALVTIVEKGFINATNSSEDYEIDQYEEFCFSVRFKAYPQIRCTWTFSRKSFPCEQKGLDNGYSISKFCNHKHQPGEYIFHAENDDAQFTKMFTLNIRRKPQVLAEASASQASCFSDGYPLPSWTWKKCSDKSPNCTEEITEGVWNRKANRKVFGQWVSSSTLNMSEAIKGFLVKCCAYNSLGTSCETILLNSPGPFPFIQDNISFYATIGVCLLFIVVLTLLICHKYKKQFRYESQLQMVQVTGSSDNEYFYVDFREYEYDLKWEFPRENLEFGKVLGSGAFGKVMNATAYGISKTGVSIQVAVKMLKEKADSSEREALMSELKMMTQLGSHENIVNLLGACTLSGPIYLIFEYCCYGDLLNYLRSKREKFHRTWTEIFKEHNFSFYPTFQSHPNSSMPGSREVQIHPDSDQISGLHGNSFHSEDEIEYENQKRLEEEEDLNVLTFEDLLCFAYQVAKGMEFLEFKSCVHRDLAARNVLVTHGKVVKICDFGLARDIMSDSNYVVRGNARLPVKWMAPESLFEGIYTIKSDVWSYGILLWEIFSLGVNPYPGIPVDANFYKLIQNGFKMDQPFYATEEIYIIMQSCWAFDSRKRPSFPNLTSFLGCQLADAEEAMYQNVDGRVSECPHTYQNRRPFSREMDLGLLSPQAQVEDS
Experimental: as §3

[17] = target: Flt4(h) (Homo sapiens, UniProt P35916); test: Kinase selectivity panel: Flt4(h); format: biochemical
Experimental: as §3

[18] = target: Fms(h) (Homo sapiens, UniProt P07333); test: Kinase selectivity panel: Fms(h); format: biochemical
Experimental: as §3

[19] = target: Fyn(h) (Homo sapiens, UniProt P06241); test: Kinase selectivity panel: Fyn(h); format: biochemical
Fyn(h), sequence (P06241 whole entry): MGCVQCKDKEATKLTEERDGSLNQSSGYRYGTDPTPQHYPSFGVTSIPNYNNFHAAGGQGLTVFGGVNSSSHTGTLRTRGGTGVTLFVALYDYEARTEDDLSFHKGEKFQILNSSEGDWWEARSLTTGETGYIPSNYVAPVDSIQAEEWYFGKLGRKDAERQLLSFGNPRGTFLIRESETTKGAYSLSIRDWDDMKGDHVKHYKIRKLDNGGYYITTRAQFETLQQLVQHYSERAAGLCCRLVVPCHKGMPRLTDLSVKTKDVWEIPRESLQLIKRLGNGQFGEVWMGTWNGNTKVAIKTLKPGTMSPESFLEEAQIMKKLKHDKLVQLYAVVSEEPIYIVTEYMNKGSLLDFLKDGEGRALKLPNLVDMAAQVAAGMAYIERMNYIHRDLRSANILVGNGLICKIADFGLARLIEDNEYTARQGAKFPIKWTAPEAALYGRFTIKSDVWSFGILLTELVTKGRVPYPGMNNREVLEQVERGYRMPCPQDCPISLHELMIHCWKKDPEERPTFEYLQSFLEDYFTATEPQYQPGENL
Experimental: as §3

[20] = target: IGF-1R(h) (Homo sapiens, UniProt P08069); test: Kinase selectivity panel: IGF-1R(h); format: biochemical
Experimental: as §3

[21] = target: KDR(h) (Homo sapiens, UniProt P35968); test: Kinase selectivity panel: KDR(h); format: biochemical
Experimental: as §3

[22] = target: Lck(h) (Homo sapiens, UniProt P06239); test: Kinase selectivity panel: Lck(h); format: biochemical
Lck(h), sequence (P06239 whole entry): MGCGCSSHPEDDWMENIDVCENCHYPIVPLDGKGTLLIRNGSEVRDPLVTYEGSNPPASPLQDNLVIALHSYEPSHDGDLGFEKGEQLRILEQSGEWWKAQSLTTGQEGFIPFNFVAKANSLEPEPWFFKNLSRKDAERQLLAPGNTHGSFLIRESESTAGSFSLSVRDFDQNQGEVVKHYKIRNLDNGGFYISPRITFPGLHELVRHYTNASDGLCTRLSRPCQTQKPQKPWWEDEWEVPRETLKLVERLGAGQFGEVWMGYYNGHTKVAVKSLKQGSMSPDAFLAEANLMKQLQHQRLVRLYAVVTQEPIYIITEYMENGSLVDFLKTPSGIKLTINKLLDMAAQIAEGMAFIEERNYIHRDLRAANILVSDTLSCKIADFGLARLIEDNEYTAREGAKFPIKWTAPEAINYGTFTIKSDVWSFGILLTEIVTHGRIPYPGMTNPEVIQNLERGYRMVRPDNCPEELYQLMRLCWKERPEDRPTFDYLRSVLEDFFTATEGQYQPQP
Experimental: (§4) Supplement oncotarget-08-50832-s003.xlsx, sheet "Sheet1" | column: Inhibition(%) at 3 µM; IC50 (nM)

[23] = target: Lyn(h) (Homo sapiens, UniProt P07948); test: Kinase selectivity panel: Lyn(h); format: biochemical
Lyn(h), sequence (P07948 whole entry): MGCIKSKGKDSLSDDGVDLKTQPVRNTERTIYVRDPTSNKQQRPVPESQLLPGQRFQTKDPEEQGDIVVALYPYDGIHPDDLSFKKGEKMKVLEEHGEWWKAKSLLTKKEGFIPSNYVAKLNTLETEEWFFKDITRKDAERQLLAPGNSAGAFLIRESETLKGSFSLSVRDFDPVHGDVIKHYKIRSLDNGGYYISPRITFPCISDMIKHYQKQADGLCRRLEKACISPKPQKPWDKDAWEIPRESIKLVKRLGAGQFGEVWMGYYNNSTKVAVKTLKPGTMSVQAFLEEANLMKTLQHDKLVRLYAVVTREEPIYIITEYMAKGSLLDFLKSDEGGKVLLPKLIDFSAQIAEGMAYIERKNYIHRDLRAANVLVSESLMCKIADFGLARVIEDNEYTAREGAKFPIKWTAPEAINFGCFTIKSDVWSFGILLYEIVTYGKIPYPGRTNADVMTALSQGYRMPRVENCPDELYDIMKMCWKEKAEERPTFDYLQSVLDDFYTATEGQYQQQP
Experimental: as §4

[24] = target: p70S6K(h) (Homo sapiens, UniProt P23443); test: Kinase selectivity panel: p70S6K(h); format: biochemical
Experimental: as §3

[25] = target: PDGFRα(h) (Homo sapiens, UniProt P16234); test: Kinase selectivity panel: PDGFRα(h); format: biochemical
Experimental: as §3

[26] = target: PKA(h) (Homo sapiens, UniProt P17612); test: Kinase selectivity panel: PKA(h); format: biochemical
Experimental: as §3

[27] = target: PKBβ(h) (Homo sapiens, UniProt P31751); test: Kinase selectivity panel: PKBβ(h); format: biochemical
Experimental: as §3

[28] = target: PKCβII(h) (Homo sapiens, UniProt P05771); test: Kinase selectivity panel: PKCβII(h); format: biochemical
Experimental: as §3

[29] = target: ROCK-I(h) (Homo sapiens, UniProt Q13464); test: Kinase selectivity panel: ROCK-I(h); format: biochemical
Experimental: as §3

[30] = target: Ros(h) (Homo sapiens, UniProt P08922); test: Kinase selectivity panel: Ros(h); format: biochemical
Experimental: as §3

[31] = target: Tie2(h) (Homo sapiens, UniProt Q02763); test: Kinase selectivity panel: Tie2(h); format: biochemical
Experimental: as §3

[32] = target: wild type EGFR (Homo sapiens, UniProt P00533); test: EGFR kinase inhibition assay (Z'-LYTE), enzyme kinetics
wild type EGFR, sequence (P00533 25-1210): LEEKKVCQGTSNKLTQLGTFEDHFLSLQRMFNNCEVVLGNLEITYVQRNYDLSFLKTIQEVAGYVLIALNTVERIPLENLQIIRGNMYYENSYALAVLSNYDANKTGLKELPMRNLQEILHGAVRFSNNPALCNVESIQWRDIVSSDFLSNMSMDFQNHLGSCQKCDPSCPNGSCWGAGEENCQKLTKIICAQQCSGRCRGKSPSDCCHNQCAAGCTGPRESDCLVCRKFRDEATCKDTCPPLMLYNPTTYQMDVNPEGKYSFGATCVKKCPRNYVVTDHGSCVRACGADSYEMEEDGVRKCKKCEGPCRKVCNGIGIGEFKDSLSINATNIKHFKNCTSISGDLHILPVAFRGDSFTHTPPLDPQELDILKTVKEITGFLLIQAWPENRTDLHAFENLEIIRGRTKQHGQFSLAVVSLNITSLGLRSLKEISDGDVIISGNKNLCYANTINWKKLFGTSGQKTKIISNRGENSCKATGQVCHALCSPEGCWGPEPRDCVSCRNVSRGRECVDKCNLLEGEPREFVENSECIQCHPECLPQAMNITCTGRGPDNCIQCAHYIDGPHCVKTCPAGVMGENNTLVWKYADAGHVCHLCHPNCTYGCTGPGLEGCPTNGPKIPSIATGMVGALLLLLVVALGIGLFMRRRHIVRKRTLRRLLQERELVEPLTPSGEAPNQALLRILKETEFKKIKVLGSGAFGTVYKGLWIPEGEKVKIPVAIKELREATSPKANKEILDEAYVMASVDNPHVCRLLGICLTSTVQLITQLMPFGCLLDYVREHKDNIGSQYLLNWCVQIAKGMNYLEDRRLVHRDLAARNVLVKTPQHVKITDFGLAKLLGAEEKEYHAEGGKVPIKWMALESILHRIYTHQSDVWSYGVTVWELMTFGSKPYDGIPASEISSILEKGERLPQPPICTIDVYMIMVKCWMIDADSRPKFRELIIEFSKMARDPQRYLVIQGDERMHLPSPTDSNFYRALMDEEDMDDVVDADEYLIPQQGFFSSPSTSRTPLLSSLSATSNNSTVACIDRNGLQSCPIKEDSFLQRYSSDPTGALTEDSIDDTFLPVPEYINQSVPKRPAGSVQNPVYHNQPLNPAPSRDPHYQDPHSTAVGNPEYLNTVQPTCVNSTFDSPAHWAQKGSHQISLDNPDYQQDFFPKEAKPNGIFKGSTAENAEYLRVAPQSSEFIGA
Experimental: EGFR kinase inhibition was determined using the Z´-LYTE™ kinase assay kit-Tyr 4 peptide (Invitrogen, PV3193). […] ATP (10, 50, 200, 500, 800 and 1000 μM) was finally added to the reaction mixture to initiate the enzymatic reaction. The final concentration of DMSO in the assay was 2%. The reaction mixture was incubated at 25°C for 60 minutes in a 384 well plate. Then, 5 μL of Development Reagent B was added per well and incubated for further 60 minutes at 25°C. The fluorescent signal was read at emission wavelengths, 445 nm and 520 nm after excitation at 400 nm in a Victor3 multi label reader (PerkinElmer).

inhibition at 3 µM [3]: 57%
inhibition at 3 µM [4]: 25%
inhibition at 3 µM [5]: 48%
inhibition at 3 µM [6]: 12%
inhibition at 3 µM [7]: 10%
inhibition at 3 µM [8]: 24%
inhibition at 3 µM [9]: 19%
inhibition at 3 µM [10]: 3%
IC50 [11]: 22 nM
inhibition at 3 µM [12]: 45%
inhibition at 3 µM [13]: 3%
inhibition at 3 µM [14]: 12%
inhibition at 3 µM [15]: 45%
inhibition at 3 µM [16]: 4%
inhibition at 3 µM [17]: 36%
inhibition at 3 µM [18]: 16%
inhibition at 3 µM [19]: 70%
inhibition at 3 µM [20]: 10%
inhibition at 3 µM [21]: 17%
IC50 [22]: 176 nM
inhibition at 3 µM ([22]; 3 µM): 95%
IC50 [23]: 501 nM
inhibition at 3 µM ([23]; 3 µM): 89%
inhibition at 3 µM [24]: 11%
inhibition at 3 µM [25]: 3%
inhibition at 3 µM [26]: 2%
inhibition at 3 µM [27]: -5%
inhibition at 3 µM [28]: 2%
inhibition at 3 µM [29]: 5%
inhibition at 3 µM [30]: 13%
inhibition at 3 µM [31]: 72%
Ki [32]: 0.05 nM
fold greater potency than erlotinib or gefitinib ([32]; at both the enzyme and the cell level): 3~7 fold
mode of inhibition ([32]; enzyme kinetics studies, wild type EGFR): ATP-competitive
Compound: C#Cc1cccc(Nc2ncnc3cc(OC)c(NC(=O)N4C[C@H]5CCN(C)[C@H]5C4)cc23)c1 [Theliatinib, (3aR,6aR)-N-(4-(3-ethynylphenyl-amino)-7-methoxyquinazolin-6-yl)-1-methyl-hexahydropyrrolo [3,4-b]pyrrole-5(1H)-carboxamide]
% TGI [1]: 46.3* %
% TGI [2]: −2.7%
